Data on four molecules can be found in US20070015774A1, “Quinazoline derivatives useful in cancer treatment” (Schering Corporation, priority 2005, published 2007).

For the experiment, the target named is GST-p53 DNA binding domain (aa 92-aa 312) (Homo sapiens, UniProt P04637). Briefly: Scintillation Proximity Assay (SPA), displacement of 3H STANDARD COMPOUND
GST-p53 DNA binding domain (aa 92-aa 312), sequence (P04637 92-312): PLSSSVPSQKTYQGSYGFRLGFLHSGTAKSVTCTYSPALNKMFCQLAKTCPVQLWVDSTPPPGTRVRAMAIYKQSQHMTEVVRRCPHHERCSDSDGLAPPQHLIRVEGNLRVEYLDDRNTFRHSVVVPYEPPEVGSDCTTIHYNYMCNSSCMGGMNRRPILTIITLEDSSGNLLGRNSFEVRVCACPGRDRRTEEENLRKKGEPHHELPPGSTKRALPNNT
The following applies: 2 ug/mL; residual total binding of 3H STANDARD COMPOUND
From the text: Most of the oncogenic mutants of the tumor suppressor protein p53 lack sequence specific DNA binding activity at physiological temperature due to conformational changes in the DNA binding domain. Small molecules and peptide which bind to the p53 DNA binding domain stabilize the conformation and restore DNA binding activity to mutant p53 protein (Science 286, 2507-2510, 1999; PNAS, 99, 937-942, 2002). Using ^3H STANDARD COMPOUND (structure shown below; carbon atom with * is the atom labelled), [drawing 1366] a radio labeled small molecule which binds to p53, and the GST-p53 DNA binding domain (aa 92-aa 312), we have developed a quantitative screening assay. The assay is based on Scintillation Proximity Assay (SPA) technology, developed by Amersham Biosciences to measure molecular interactions. Briefly, the complex of GST-p53, ^3H STANDARD and Glutathione-SPA beads (Amersham Biosciences) are incubated with mixing for 1 hr at room temperature in the presence of the novel compounds to be screened. The signal is read on Microbeta. The compounds which have the ability to displace ^3H STANDARD COMPOUND are selected. Such molecules will stabilize the conformation and restore DNA binding activity to mutant p53 protein.
The above assay was used to determine the ability of the compounds of this invention to directly bind to p53 core and restore DNA binding activity to mutant p53 and the results for selected compounds have been given above in various tables.
A letter rating corresponding to % Residual total binding (T) @ 2 ug/mL of drug (i.e., compound of the present invention) from this assay have been assigned as follows: Compounds having % Residual T values of from 0% to less than 20% have been assigned the letter “A”. Compounds having % Residual T values of from 20% to less than 40% have been assigned the letter “B”. Compounds having % Residual T values of from 40% to less than 80% have been assigned the letter “C”. Compounds having % Residual T values of 80% or higher have been assigned the letter “D”. The exact % Residual T values @ 2 ug/mL for some illustrative compounds are shown below: […]
On the technique in general: In a scintillation proximity assay essentially only radioactivity close to the scintillant gives light.
`CN(Cc1ccccc1)Cc1nc2ccccc2c(=O)[nH]1` [Preparative Example 17, 2-[(benzylmethylamino)methyl]-3H-quinazolin-4-one]: the “% Residual T @ 2 ug/mL according to scintillation proximity assay (SPA)” value is “B (% Residual T values of from 20% to less than 40%)”.
To `CN(C)CCCNc1nc(CN(C)Cc2ccccc2)nc2ccccc12` [Preparative Example 19, N,N-dimethyl-N′-[2-{(N-methyl-N-benzylamino)methyl}quinazolin-4-yl]propane-1,3-diamine] belongs “B (% Residual T values of from 20% to less than 40%)”.
As for `CNCc1nc(NCCCN(C)C)c2ccccc2n1` [Preparative Example 20, N,N-DIMETHYL-N′-[2-(METHYLAMINOMETHYL)QUINAZOLIN-4-YL]PROPANE-1,3-DIAMINE], the entry is “C (% Residual T values of from 40% to less than 80%)”; as for `CN(C)CCC[C@H](N)C(N)=O` [Preparative Example 42, 2(S)-(+)-AMINO-5-DIMETHYLAMINOPENTANAMIDE], “D (% Residual T values of 80% or higher)”.
